Measurements: patent US20020032328A1, “Heterocyclic acylsulfimides, processes for their preparation, compositions comprising them and their use as pesticides” (priority 2000, published 2002)

Key:
[1] = test system: black bean aphids (Aphis fabae); assay: Aphis fabae dip test on field bean (plants and aphids dipped in preparation); format: in vivo; details: read-out: mortality among the aphids
[2] = test system: black bean aphids (Aphis fabae); assay: Aphis fabae root-systemic test on field bean; format: in vivo; details: read-out: mortality among the aphids, by root-systemic action

Row | Compound | mortality at 300 ppm [1] [%] | mortality at 30 ppm [2] [%]
1 | CS(=O)(=NC(=O)c1cnccc1C(F)(F)F)c1ccc(Oc2cccc(F)c2C#N)cc1 (stereo not shown) [Example 718] | 90 to 100 | 90 to 100
2 | C/S(=N\C(=O)c1cnccc1C(F)(F)F)c1ccsc1 (stereo not shown) [Example 66] | 90 to 100 | 90 to 100
